For 26 compounds, IC50 results are on record in patent US20250282768A1 (Janssen Pharmaceutica NV, priority 2022, published 2025).

The experiment deals with p-IKKa levels in L363 (NIK translocated multiple myeloma) cells. As to the kind of experiment: Assay 2: Effect of compounds on p-IKKa levels in L363 (NIK translocated multiple myeloma) cells. The format is cell-based. The conditions noted are these: Homo sapiens, L-363, 6 h, read-out: Assay 2 IC50 (nM), p-IKKa (Ser 176/180) in BAFF stimulated L363 cells with MG132, 6 h; average if tested more than once. The gist of the method: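 L363 cells incubated overnight ± 250 ng/ml BAFF, then 6 h at 37 °C with compound (0.3% DMSO) ± 10 μM MG132. Lysates assayed for p-IKKa (Ser176/180) by AlphaLISA SureFire. IC50 from sigmoidal fit of % inhibition normalized to BAFF/MG132-stimulated and unstimulated controls.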

As for `CN1CC[C@@](O)(c2cc(-c3cccc(-c4ccnc(Nc5ccn(C6CC6)n5)n4)n3)no2)C1=O` [Example 212, (R)-3-(3-(6-(2-((1-Cyclopropyl-1H-pyrazol-3-yl)amino)pyrimidin-4-yl)pyridin-2-yl)isoxazol-5-yl)-3-hydroxy-1-methylpyrrolidin-2-one], the IC50 is below 50 nM.

On to `Cc1cc(Nc2nccc(-c3cccc(-c4cc([C@]5(O)CCN(C)C5=O)no4)n3)n2)ccn1` [Example 213, (R)-3-Hydroxy-1-methyl-3-(5-(6-(2-((2-methylpyridin-4-yl)amino)pyrimidin-4-yl)pyridin-2-yl)isoxazol-3-yl)pyrrolidin-2-one], for which the IC50 is 50 to 500 nM.

For the compound `CN1CC[C@@](O)(c2cn(-c3cccc(-c4ccnc(Nc5ccn(CC(F)F)n5)n4)n3)nn2)C1=O` [Example 214, (R)-3-(1-(6-(2-((1-(2,2-Difluoroethyl)-1H-pyrazol-3-yl)amino)pyrimidin-4-yl)pyridin-2-yl)-1H-1,2,3-triazol-4-yl)-3-hydroxy-1-methylpyrrolidin-2-one], the IC50 was below 50 nM.

Consider `CN1CC[C@@](O)(c2cc(-c3cccc(-c4ccnc(Nc5cnn(C6CNC6)c5)n4)n3)no2)C1=O` [Example 215, (R)-3-(3-(6-(2-((1-(Azetidin-3-yl)-1H-pyrazol-4-yl)amino)pyrimidin-4-yl)pyridin-2-yl)isoxazol-5-yl)-3-hydroxy-1-methylpyrrolidin-2-one], for which the IC50 is above 500 nM.

Take `CN1CC[C@@](O)(c2cc(-c3cccc(-c4ccnc(Nc5cnn6ncccc56)n4)n3)no2)C1=O` [Example 216, (R)-3-Hydroxy-1-methyl-3-(3-(6-(2-(pyrazolo[1,5-b]pyridazin-3-ylamino)pyrimidin-4-yl)pyridin-2-yl)isoxazol-5-yl)pyrrolidin-2-one]: the IC50 is below 50 nM.

`CCn1ncc(Nc2nccc(-c3cccc(-c4cc([C@]5(O)CCN(C)C5=O)on4)n3)n2)c1C` [Example 217, (R)-3-(3-(6-(2-((1-Ethyl-5-methyl-1H-pyrazol-4-yl)amino)pyrimidin-4-yl)pyridin-2-yl)isoazol-5-yl)-3-hydroxy-1-methylpyrrolidin-2-one]: the IC50 is below 50 nM.

As to `CN1CC[C@@](O)(c2cc(-c3cccc(-c4ccnc(Nc5cnc6cccnn56)n4)n3)no2)C1=O` [Example 218, (R)-3-Hydroxy-3-(3-(6-(2-(imidazo[1,2-b]pyridazin-3-ylamino)pyrimidin-4-yl)pyridin-2-yl)isoxazol-5-yl)-1-methylpyrrolidin-2-one], the IC50 was above 500 nM.

Take `CN1CC[C@@](O)(c2cc(-c3cccc(-c4ccnc(Nc5cnc6ccccn56)n4)n3)no2)C1=O` [Example 219, (R)-3-Hydroxy-3-(3-(6-(2-(imidazo[1,2-a]pyridin-3-ylamino)pyrimidin-4-yl)pyridin-2-yl)isoxazol-5-yl)-1-methylpyrrolidin-2-one]: the IC50 is above 500 nM.

With `CCn1ncc(Nc2nccc(-c3cccc(-c4cc([C@]5(O)CCN(C)C5=O)on4)n3)n2)c1OC` [Example 220, (R)-3-(3-(6-(2-((1-Ethyl-5-methoxy-1H-pyrazol-4-yl)amino)pyrimidin-4-yl)pyridin-2-yl)isoxazol-5-yl)-3-hydroxy-1-methylpyrrolidin-2-one], the IC50 was 50 to 500 nM.

With `CN1CC[C@@](O)(c2cc(-c3cccc(-c4ccnc(Nc5cnn6c5CCC6)n4)n3)no2)C1=O` [Example 221, (R)-3-(3-(6-(2-((5,6-Dihydro-4H-pyrrolo[1,2-b]pyrazol-3-yl)amino)pyrimidin-4-yl)pyridin-2-yl)isoxazol-5-yl)-3-hydroxy-1-methylpyrrolidin-2-one], the IC50 was below 50 nM.

For the compound `Cc1c(Nc2nccc(-c3cccc(-c4cc([C@]5(O)CCN(C)C5=O)on4)n3)n2)cnn1C` [Example 222, (R)-3-(3-(6-(2-((1,5-Dimethyl-1H-pyrazol-4-yl)amino)pyrimidin-4-yl)pyridin-2-yl)isoxazol-5-yl)-3-hydroxy-1-methylpyrrolidin-2-one], the IC50 was below 50 nM.

`Cc1c(Nc2nccc(-c3cccc(-c4cc([C@@]5(O)C(=O)N(C)CC5(F)F)on4)n3)n2)cnn1C` [Example 223, (R)-3-(3-(6-(2-((1,5-Dimethyl-1H-pyrazol-4-yl)amino)pyrimidin-4-yl)pyridin-2-yl)isoxazol-5-yl)-4,4-difluoro-3-hydroxy-1-methylpyrrolidin-2-one]: the IC50 is below 50 nM.

With `Cc1c(Nc2nccc(-c3cccc(-c4cc([C@]5(O)CCN(C)C5=O)on4)n3)n2)cnn1CC(F)F` [Example 225, (R)-3-(3-(6-(2-((1-(2,2-Difluoroethyl)-5-methyl-1H-pyrazol-4-yl)amino)pyrimidin-4-yl)pyridin-2-yl)isoxazol-5-yl)-3-hydroxy-1-methylpyrrolidin-2-one], the IC50 is below 50 nM.

Regarding `CCc1c(Nc2nccc(-c3cccc(-c4cc([C@]5(O)CCN(C)C5=O)on4)n3)n2)cnn1C` [Example 226, (R)-3-(3-(6-(2-((5-Ethyl-1-methyl-1H-pyrazol-4-yl)amino)pyrimidin-4-yl)pyridin-2-yl)isoxazol-5-yl)-3-hydroxy-1-methylpyrrolidin-2-one], the IC50 is below 50 nM.

Consider `Cc1c(Nc2nccc(-c3cccc(-c4cc([C@]5(O)CCN(C)C5=O)on4)n3)n2)cnn1C(F)F` [Example 227, (R)-3-(3-(6-(2-((1-(Difluoromethyl)-5-methyl-1H-pyrazol-4-yl)amino)pyrimidin-4-yl)pyridin-2-yl)isoxazol-5-yl)-3-hydroxy-1-methylpyrrolidin-2-one], for which the IC50 is below 50 nM.

Take `CN1CC[C@@](O)(c2cc(-c3cccc(-c4ccnc(Nc5cnn(C)c5C5CC5)n4)n3)no2)C1=O` [Example 228, (R)-3-(3-(6-(2-((5-Cyclopropyl-1-methyl-1H-pyrazol-4-yl)amino)pyrimidin-4-yl)pyridin-2-yl)isoxazol-5-yl)-3-hydroxy-1-methylpyrrolidin-2-one]: the IC50 is below 50 nM.

Turning to `Cc1nscc1Nc1nccc(-c2cccc(-c3cc([C@]4(O)CCN(C)C4=O)on3)n2)n1` [Example 229, (R)-3-Hydroxy-1-methyl-3-(3-(6-(2-((3-methylisothiazol-4-yl)amino)pyrimidin-4-yl)pyridin-2-yl)isoxazol-5-yl)pyrrolidin-2-one], the IC50 is below 50 nM.

For `COc1cn([C@H]2C[C@@H](O)C2)nc1Nc1nccc(-c2cccc(-c3cc([C@]4(O)CCN(C)C4=O)on3)n2)n1` [Example 230, (R)-3-Hydroxy-3-(3-(6-(2-((1-((1s,3s)-3-hydroxycyclobutyl)-4-methoxy-1H-pyrazol-3-yl)amino)pyrimidin-4-yl)pyridin-2-yl)isoxazol-5-yl)-1-methylpyrrolidin-2-one], the IC50 is below 50 nM.

Take `COc1cn([C@H]2C[C@H](O)C2)nc1Nc1nccc(-c2cccc(-c3cc([C@]4(O)CCN(C)C4=O)on3)n2)n1` [Example 231, (R)-3-Hydroxy-3-(3-(6-(2-((1-((1r,3r)-3-hydroxycyclobutyl)-4-methoxy-1H-pyrazol-3-yl)amino)pyrimidin-4-yl)pyridin-2-yl)isoxazol-5-yl)-1-methylpyrrolidin-2-one]: the IC50 was below 50 nM.

Consider `CN1CC[C@@](O)(c2cc(-c3cccc(-c4ccnc(Nc5cn(C)nc5OCCO)n4)n3)no2)C1=O` [Example 232, (R)-3-Hydroxy-3-(3-(6-(2-((3-(2-hydroxyethoxy)-1-methyl-1H-pyrazol-4-yl)amino)pyrimidin-4-yl)pyridin-2-yl)isoxazol-5-yl)-1-methylpyrrolidin-2-one], for which the IC50 was in the range of 50 to 500 nM.

In the case of `Cc1nn(C2CCOCC2)cc1Nc1nccc(-c2cccc(-c3cc([C@]4(O)CCN(C)C4=O)on3)n2)n1` [Example 233, (R)-3-Hydroxy-1-methyl-3-(3-(6-(2-((3-methyl-1-(tetrahydro-2H-pyran-4-yl)-1H-pyrazol-4-yl)amino)pyrimidin-4-yl)pyridin-2-yl)isoxazol-5-yl)pyrrolidin-2-one], the IC50 was below 50 nM.

On to `Cc1nn(CC(C)(C)O)cc1Nc1nccc(-c2cccc(-c3cc([C@]4(O)CCN(C)C4=O)on3)n2)n1` [Example 234, (R)-3-Hydroxy-3-(3-(6-(2-((1-(2-hydroxy-2-methylpropyl)-3-methyl-1H-pyrazol-4-yl)amino)pyrimidin-4-yl)pyridin-2-yl)isoxazol-5-yl)-1-methylpyrrolidin-2-one], for which the IC50 is below 50 nM.

Take `Cc1nn(CC(C)(C)O)cc1Nc1nccc(-c2cccc(-c3cc([C@@]4(O)C(=O)N(C)CC4(F)F)on3)n2)n1` [Example 235, (R)-4,4-Difluoro-3-hydroxy-3-(3-(6-(2-((1-(2-hydroxy-2-methylpropyl)-3-methyl-1H-pyrazol-4-yl)amino)pyrimidin-4-yl)pyridin-2-yl)isoxazol-5-yl)-1-methylpyrrolidin-2-one]: the IC50 is below 50 nM.

As to `Cc1noc(C)c1Nc1nccc(-c2cccc(-c3cc([C@]4(O)CCN(C)C4=O)on3)n2)n1` [Example 236, (R)-3-(3-(6-(2-((3,5-Dimethylisoxazol-4-yl)amino)pyrimidin-4-yl)pyridin-2-yl)isoxazol-5-yl)-3-hydroxy-1-methylpyrrolidin-2-one], the IC50 was 50 to 500 nM.

As for `CCn1ccc(Nc2nccc(-c3cccc(-c4cc([C@]5(O)CCN(C)C5=O)no4)n3)n2)n1` [Example 237, (R)-3-(5-(6-(2-((1-Ethyl-1H-pyrazol-3-yl)amino)pyrimidin-4-yl)pyridin-2-yl)isoxazol-3-yl)-3-hydroxy-1-methylpyrrolidin-2-one], the IC50 is below 50 nM.

As to `Cc1c(Nc2nccc(-c3cccc(-c4cc([C@]5(O)CCN(C)C5=O)no4)n3)n2)cnn1C` [Example 238, (R)-3-(5-(6-(2-((1,5-Dimethyl-1H-pyrazol-4-yl)amino)pyrimidin-4-yl)pyridin-2-yl)isoxazol-3-yl)-3-hydroxy-1-methylpyrrolidin-2-one], the IC50 is below 50 nM.
